Source: patent US20260109707A1, “HETEROBIFUNCTIONAL COMPOUNDS AND METHODS OF TREATING DISEASE” (Halda Therapeutics OpCo. Inc., priority 2022, published 2026)
Read-outs that look alike come from different tables or passages of the source.

Key:
[1] = tested on: T-Rex 293 cell line SC3 cells having increased expression of androgen receptor protein due to exposure to doxycycline; test: Cellular growth inhibition assay, T-Rex 293 SC3 cells with doxycycline (CellTiter-Glo, 72 hours); format: cell-based; conditions: T-Rex 293 SC3 cells with increased androgen receptor expression due to doxycycline (10 ng/mL)
Procedure: (§1) The following types of cells were prepared for this experiment: (i) a T-Rex 293 cell line having increased expression of androgen receptor protein due to exposure to doxycycline and (ii) a T-Rex 293 cell line lacking increased expression of androgen receptor protein. Ability of the test compounds to inhibit proliferation of the foregoing cell types was evaluated according to the procedures set forth below.
(§2) The doxycycline-inducible androgen receptor protein expressing cell line was established using the following protocol: T-Rex 293 cells were purchased from Invitrogen (Cat #R71007) and transfected using Lipofectamine 2000 with the wild-type androgen receptor protein sequence cloned into the pcDNA4/TO vector. Transfected cells were selected using 400 μg/mL Zeocin (Invitrogen Cat #R25001). Following selection, single clones were raised and maintained in Dulbecco's Modified Eagle Medium (DMEM) supplemented with 10% w/w Tetracycline-free fetal bovine serum (FBS) and 250 μg/mL Zeocin. Clones were analyzed for expression of androgen receptor protein in the presence and absence of 10 ng/mL doxycycline (Sigma Cat #D9891), and a single doxycycline-inducible clone (hereinafter “SC3”) was selected for use in downstream assays.
(§3) The SC3 cells were seeded on poly-D-lysine coated, black clear-bottom 384-well plates at 2500/well, in 25 μL Phenol Red Free Dulbecco's Modified Eagle Medium (DMEM) supplemented with 10% w/w charcoal-dextran treated fetal bovine serum (FBS) and 1% w/w pen-strep, with or without 10 ng/mL doxycycline. Pen-Strep is a commercially available mixture of penicillin G and streptomycin, which is used in mammalian cell culture media to prevent bacterial contamination. Phenol Red Free Dulbecco's Modified Eagle Medium (DMEM) supplemented with 10% w/w charcoal-dextran treated fetal bovine serum (FBS) and 1% w/w pen-strep, with or without 10 ng/mL doxycycline is herein referred to as Treatment Medium. Following seeding of cells in the plates, the plates were spun at 300×g for 30 seconds, then equilibrated to room temperature for 30 minutes, and then deposited in a humidified tissue culture incubator maintained at 37° C. with 5% CO2.
(§4) At 24 hours after seeding of the cells, dilutions of test compound were prepared in DMSO and dissolved in Treatment Medium, to achieve a final DMSO concentration of 0.5% w/w, thereby providing the Test Compound Solution. A 25 μL aliquot of the Test Compound Solution was added to cells in the well plates. An equal volume of a solution containing DMSO and Treatment Medium was used as a negative control. Following treatment of cells with Test Compound Solution or said equal volume of a solution containing DMSO and Treatment Medium, the plates were spun at 300×g for 30 seconds, and then left in an incubator for 72 hours.
(§5) At the end of the treatment duration, cell viability was quantified with CellTiter-Glo 2.0 reagent (Promega Cat #G9243). For this purpose, plates were equilibrated to room temperature for 30 minutes, and then 25 μL of CellTiter-Glo 2.0 reagent was added to cells in the plate wells. Plates were then agitated on a shaker for two minutes at 500 rpm and subsequently incubated at room temperature for 10 minutes. Following incubation, the plates were spun at 3000×g for 30 seconds, then sealed with an optical adhesive cover, and luminescence readings were measured with an EnVision Plate Reader.
(§6) Data was normalized using zero luminescence for baseline. A four-parameter non-linear regression curve fit was applied to dose-response data in GraphPad Prism data analysis software to determine the half-maximal growth inhibitory concentration (GI50) for each test compound.

[2] = tested on: T-Rex 293 cell line SC3 cells lacking increased expression of androgen receptor protein; test: Cellular growth inhibition assay, T-Rex 293 SC3 cells without doxycycline (CellTiter-Glo, 72 hours); format: cell-based; conditions: T-Rex 293 cell line SC3 cells not exposed to doxycycline (lacking increased androgen receptor expression)
Procedure: as §1, §2, §3, §4, §5, §6

VCaP cells = test: Cellular growth inhibition assay for VCaP cells (CellTiter-Glo, 72 hours); format: cell-based, human
Procedure: VCaP cells were purchased from American Type Cell Culture (ATCC Cat #CRL2876) and then seeded on poly-D-lysine coated, black clear-bottom 384-well plates at 5000/well in 25 μL Dulbecco's Modified Eagle Medium (DMEM) supplemented with 10% w/w Fetal bovine serum (FBS) and 1% w/w Pen-Strep. Pen-Strep is a commercially available mixture of penicillin G and streptomycin, which is used in mammalian cell culture media to prevent bacterial contamination. Dulbecco's Modified Eagle Medium (DMEM) supplemented with 10% w/w fetal bovine serum (FBS) and 1% w/w Pen-Strep is herein referred to as Treatment Medium. Following seeding of cells in the plates, the plates were spun at 300×g for 30 seconds, then equilibrated to room temperature for 30 minutes, and then deposited in a humidified tissue culture incubator maintained at 37° C. with 5% C0-2.
as §4, §5, §6

Row | Compound | GI50 (VCaP cells) [nM] | GI50 (VCaP cells; Homo sapiens, VCaP, 72 h) [nM] | GI50 ([1]; 72 h) [nM] | GI50 ([2]; 72 h) [nM] | GI50 [1] [nM] | GI50 [2] [nM]
1 | Cc1sc2c(c1C)C(c1ccc(C3CCC4(CC3)CCN(c3ccc(C(=O)N[C@H]5CC[C@H](Oc6ccc(C#N)c(Cl)c6)CC5)nn3)C4)nc1)=N[C@@H](C)c1nnc(C)n1-2 (some centres unmarked) [I-533] | < 500 |  | < 500 | < 500 |  | 
2 | Cc1sc2c(c1C)C(c1ccc(NC[C@H]3CC[C@H](CNc4ncc(C(=O)N[C@H]5CC[C@H](Oc6ccc(C#N)c(Cl)c6)CC5)cn4)CC3)cc1)=NC(Cc1ncco1)c1nnc(C)n1-2 (some centres unmarked) [I-807] |  | < 500 | < 500 | < 500 |  | 
3 | Cc1sc2c(c1C)C(c1ccc(N3CC4(CC(Cc5ccc(C(=O)N[C@H]6CC[C@H](Oc7ccc(C#N)c(Cl)c7)CC6)nn5)C4)C3)cc1)=NC(C(F)(F)F)c1nnc(C)n1-2 (some centres unmarked) [I-724] |  | < 500 |  | > 3000 | > 3000 | 
4 | CCNC(=O)C[C@@H]1N=C(c2cccc(OCCOCCOC3CCN(c4ccc(C(=O)N[C@H]5CC[C@H](Oc6ccc(C#N)c(Cl)c6)CC5)nn4)CC3)c2)c2c(sc(C)c2C)-n2c(C)nnc21 [I-23] |  | > 3000 | < 500 | 1500 to 3000 |  | 
5 | Cc1sc2c(c1C)C(c1ccc(N3CCC(CN4CCN(c5ccc(C(=O)N[C@H]6CC[C@H](Oc7ccc(C#N)c(Cl)c7)CC6)nn5)CC4)CC3)cc1)=N[C@@H](C)c1nnc(C)n1-2 [I-499] |  | < 500 | < 500 | > 3000 |  | 
6 | Cc1sc2c(c1C)C(c1ccc(CC3CCC4(CCCN(c5ccc(C(=O)N[C@H]6CC[C@H](Oc7ccc(C#N)c(Cl)c7)CC6)nn5)C4)C3)cn1)=N[C@@H](C)c1nnc(C)n1-2 (some centres unmarked) [I-636] | < 500 |  |  |  | < 500 | 500 to 1500
7 | CCNC(=O)C[C@@H]1N=C(c2ccc(CCCCCCOC3CCN(c4ccc(C(=O)N[C@H]5CC[C@H](Oc6ccc(C#N)c(Cl)c6)CC5)nn4)CC3)cc2)c2c(sc(C)c2C)-n2c(C)nnc21 [I-22] |  | 500 to 1500 | < 500 | 500 to 1500 |  | 
8 | Cc1sc2c(c1C)C(c1ccc(CCC3CC4(CCCN(c5ccc(C(=O)N[C@H]6CC[C@H](Oc7ccc(C#N)c(Cl)c7)CC6)nn5)C4)C3)cn1)N[C@@H](Cc1ncco1)c1nnc(C)n1-2 (some centres unmarked) [I-643] |  | < 500 | < 500 | > 3000 |  | 
9 | Cc1sc2c(c1C)C(c1ccc(N3C[C@@]4(F)CN(c5ccc(C(=O)N[C@H]6CC[C@H](Oc7ccc(C#N)c(Cl)c7)CC6)nn5)C[C@@]4(F)C3)cc1)=N[C@@H](C)c1nnc(C)n1-2 [I-675] |  | < 500 | < 500 | < 500 |  | 
10 | Cc1sc2c(c1C)C(c1ccc(N3CCC4(CCN(c5ccc(C(=O)N[C@H]6CC[C@H](Oc7ccc(C#N)c(Cl)c7)CC6)nn5)CC4)C3)cc1)=NC(C(F)(F)F)c1nnc(C)n1-2 (some centres unmarked) [I-726] |  | < 500 |  | > 3000 | < 500 | 
11 | Cc1sc2c(c1C)C(c1ccc(N3C[C@@H]4CN(c5ccc(C(=O)N[C@H]6CC[C@H](Oc7ccc(C#N)c(Cl)c7)CC6)nn5)C[C@H]4C3)cc1)=NC1(CC1)c1nnc(C)n1-2 [I-664] |  | < 500 | < 500 | < 500 |  | 
12 | Cc1sc2c(c1C)C(c1ccc(N[C@H]3CC[C@H](Nc4ncc(C(=O)N[C@H]5CC[C@H](Oc6ccc(C#N)c(Cl)c6)CC5)cn4)CC3)cc1)=NC(Cc1ncco1)c1nnc(C)n1-2 (some centres unmarked) [I-790] |  | < 500 | < 500 | < 500 |  | 
13 | COC[C@@H]1N=C(c2ccc(OC3CC4(CCCN(c5ccc(C(=O)N[C@H]6CC[C@H](Oc7ccc(C#N)c(Cl)c7)CC6)nn5)C4)C3)cc2)c2c(sc(C)c2C)-n2c(C)nnc21 (some centres unmarked) [I-693] |  | < 500 |  | < 500 |  | 
14 | Cc1sc2c(c1C)C(c1ccc(C#CC3CC4(CCCN(c5ccc(C(=O)N[C@H]6CC[C@H](Oc7ccc(C#N)c(Cl)c7)CC6)nn5)C4)C3)cc1)=NC1(CC1)c1nnc(C)n1-2 (some centres unmarked) [I-445] |  | < 500 |  | > 3000 |  | 
15 | Cc1sc2c(c1C)C(c1ccc(CC3CC(OC4CCN(c5ccc(C(=O)NC6CCC(Oc7ccc(C#N)c(Cl)c7)CC6)nn5)CC4)C3)cc1)=NC(C)c1nnc(C)n1-2 (centres unmarked) [I-588] |  | < 500 |  |  |  | 
16 | Cc1sc2c(c1C)C(c1ccc(N3CCC4(CCN(c5ccc(C(=O)N[C@H]6CC[C@H](Oc7ccc(C#N)c(Cl)c7)CC6)nn5)C4)C3)cc1)=N[C@@H](C)c1nnc(C)n1-2 (some centres unmarked) [I-512] |  | < 500 |  | < 500 |  | 

More lines, main results first:

Row | GI50 (VCaP cells) [nM] | GI50 (VCaP cells; Homo sapiens, VCaP, 72 h) [nM] | Compound | GI50 ([1]; 72 h) [nM] | GI50 ([2]; 72 h) [nM] | GI50 [1] [nM] | GI50 [2] [nM]
17 | < 500 |  | Cc1sc2c(c1C)C(c1ccc(C#CC3CC(Cc4ccc(C(=O)N[C@H]5CC[C@H](Oc6ccc(C#N)c(Cl)c6)CC5)nn4)C3)cc1)=N[C@@H](Cc1ncco1)c1nnc(C)n1-2 (some centres unmarked) [I-646] |  |  | < 500 | < 500
18 |  | > 3000 | COCC[C@@H]1N=C(c2ccc(N3CCC4(CCCN(c5ccc(C(=O)N[C@H]6CC[C@H](Oc7ccc(C#N)c(Cl)c7)CC6)nn5)C4)CC3)cc2)c2c(sc(C)c2C)-n2c(C)nnc21 [I-569] | < 500 | > 3000 |  | 
19 |  | > 3000 | Cc1sc2c(c1C)C(c1ccc(COC3CCC4(CCCN(c5ccc(C(=O)N[C@H]6CC[C@H](Oc7ccc(C#N)c(Cl)c7)CC6)nn5)C4)C3)cc1)=NC1(CC1)c1nnc(C)n1-2 (some centres unmarked) [I-509] |  |  | < 500 | > 3000
20 |  | 500 to 1500 | Cc1sc2c(c1C)C(c1ccccc1N1CCC3(CCCN(c4ccc(C(=O)N[C@H]5CC[C@H](Oc6ccc(C#N)c(Cl)c6)CC5)nn4)C3)CC1)=N[C@@H](C)c1nnc(C)n1-2 [I-737] | < 500 | < 500 |  | 
21 |  | < 500 | Cc1sc2c(c1C)C(c1ccc(N3CC45CCCCC4(C3)CN(c3ccc(C(=O)N[C@H]4CC[C@H](Oc6ccc(C#N)c(Cl)c6)CC4)nn3)C5)cc1)=N[C@@H](C)c1nnc(C)n1-2 (some centres unmarked) [I-766] | < 500 | > 3000 |  | 
22 | > 3000 |  | Cc1sc2c(c1C)C(c1ccc(N3CCC4(CCCN(c5ccc(C(=O)N[C@H]6CC[C@H](Oc7ccc(C#N)c(Cl)c7)CC6)nn5)C4)CC3)cc1)=NC(C(F)(F)F)c1nnc(C)n1-2 (some centres unmarked) [I-722] |  |  | > 3000 | > 3000
23 |  | 500 to 1500 | Cc1sc2c(c1C)C(c1ccc(N3C[C@@]4(C)CN(c5ccc(C(=O)N[C@H]6CC[C@H](Oc7ccc(C#N)c(Cl)c7)CC6)nn5)C[C@@]4(C)C3)cc1)=N[C@@H](C)c1nnc(C)n1-2 [I-704] | < 500 | > 3000 |  | 
24 |  | 500 to 1500 | CCNC(=O)C[C@@H]1N=C(c2cccc(OCCOCCOCCOC3CCN(c4ncc(C(=O)N[C@H]5CC[C@H](Oc6ccc(C#N)c(Cl)c6)CC5)cn4)CC3)c2)c2c(sc(C)c2C)-n2c(C)nnc21 [I-11] | < 500 | > 3000 |  | 
25 |  | < 500 | COC[C@@H]1N=C(c2ccc(C3CCC4(CC3)CCN(c3ccc(C(=O)N[C@H]5CC[C@H](Oc6ccc(C#N)c(Cl)c6)CC5)nn3)C4)cc2)c2c(sc(C)c2C)-n2c(C)nnc21 (some centres unmarked) [I-601] | < 500 |  |  | 
26 |  | < 500 | Cc1sc2c(c1C)C(c1ccc(N3C[C@@H]4CN(c5ccc(C(=O)N[C@H]6CC[C@H](Oc7ccc(C#N)c(Cl)c7)CC6)nn5)C[C@H]4C3)cc1)=N[C@@H](C)c1nnc(C)n1-2 [I-677] | < 500 |  |  | 
